From patent publication US9801371B2, “Self-assembling polymer particle release system” (priority 2010, dated 2017)
“And” between values parts separate entries of the source, which are not always exact repeats. Equal entries are not always repeated. Where two headings read alike, the source gives them in different places.

Assays:
[1] = cited from earlier work
[2] = Filter paper test: ten 10-ml water washings, UV analysis of AI washed through; format: physicochemical; settings: for mobility on filter paper or soil: washed with several 10 ml aliquots of water; for R (rating factor, number of washings to deplete the AI): ten 10-ml water washings
Source text: All of the polymers in this set of experiments were combined with the AI at a 70% AI by weight to 30% polymer by weight concentrations. […] The filter paper samples were applied to a slightly wet Buchner funnel to set the paper evenly and then ten 10-ml aliquots of de-ionized (DI) water were suctioned through the filter paper. Ultraviolet light (UV) analysis for each of the 10-ml fractions was used to determine the absorption of the AI (264 nm) washed through the filter paper and recorded as absorption versus each individual 10-ml wash.
The control for these systems was evaluated by placing methylene chloride solutions of the AI alone or the polymer alone onto the filter paper, drying overnight, and washing with ten 10-ml aliquots of DI water.
The AI was dry ground (mortar and pestle) with urea-formaldehyde flower foam as the cage material [commercial product (Foliage Fresh)] where the ratio of AI to flower foam was 70%/30% by weight. This mixture then was tumbled-coated with an organic solvent solution of a hydrophobic polymer (paraffin wax/hexane; polystyrene/toluene; silicone oil/toluene) in a round bottom flask. […] Small amounts (0.07 g) of the powder were placed on the filter paper and subsequently washed with ten 10-ml aliquots of DI water and analyzed in a similar manner as previously described.
Liquid samples of the AI-polymer combinations and AI control samples were applied to filter paper (Whatman #2) and dried for 24 hours at room temperature. The filter paper containing the AI-polymer combination or the AI control samples were placed in a Buchner funnel under water aspiration vacuum conditions, while ten 10-ml aliquots of water were applied to the top of the filter paper containing the AI-polymer or AI control material, which was then sucked through the filter paper and collected in the receiving flask that holds the funnel-vacuum attachment.
After each 10-ml aliquot of water was suctioned through the filter paper containing the sample, the suctioned solution then was removed and analyzed with a UV spectrometer for any AI that went through the water washing process. The ten 10-ml sequential washings were a simulation of how an AI applied to soil would remain on the soil and migrate through the soil under a rain environmental exposure condition.
Dry 100% solid samples were placed on the filter paper directly and subsequently washed with ten 10-ml aliquots in a similar manner as the liquid samples that were dried after placement on the filter paper.
Various concentrations of the AI's were dissolved in water or water and a co-solvent and analyzed at 254 nm or other UV/visible regions of the spectrum in order to establish a standard calibration curve of absorbance versus AI concentration.

[3] = Table 26, USDA Pesticide Properties Database

SMILES: COP(=S)(OC)Oc1ccc(SC)c(C)c1 [Fenthion]
- KOC ([1]; Tables 21-25): 1500

SMILES: O=C(Nc1nc(OC(F)F)cc(OC(F)F)n1)NS(=O)(=O)c1ccccc1C(=O)O [Primisulfuron]
- KOC ([1]; Tables 21-25): 50

SMILES: CN(C)C(=O)Nc1ccc(Cl)cc1 [Monuron]
- KOC ([1]; Tables 21-25): 150

SMILES: CCCSP(=O)(OCC)Oc1ccc(Br)cc1Cl (stereo not shown) [Profenofos]
- KOC ([1]; Tables 21-25): 2016

SMILES: CC1CCCCC1NC(=O)Nc1ccccc1 (stereo not shown) [Siduron]
- KOC ([1]; Tables 21-25): 420

SMILES: CSc1nc(NC(C)C)nc(NC(C)C)n1 [Prometryn]
- KOC ([1]; Tables 21-25): 400

SMILES: CS(=O)(=O)NC(=O)c1cc(Oc2ccc(C(F)(F)F)cc2Cl)ccc1[N+](=O)[O-] [Fomesafen]
- KOC ([1]; Tables 21-25): 50

SMILES: CCNc1nc(NC(C)C)nc(SC)n1 [Ametryn]
- KOC ([1]; Tables 21-25): 316

SMILES: CCOP(=S)(OCC)SCCSCC [Disulfuton]
- KOC ([1]; Tables 21-25): 13454

SMILES: O=C(NC(=O)c1c(F)cccc1F)Nc1cc(Cl)c(OC(F)(F)C(F)C(F)(F)F)cc1Cl (stereo not shown) [Lufenuron]
- KOC ([1]; Tables 21-25): 41182

SMILES: CCCC1COC(Cn2cncn2)(c2ccc(Cl)cc2Cl)O1 (stereo not shown) [Propiconazole]
- KOC ([1]; Tables 21-25): 1086

SMILES: COC(=O)c1cccc(C)c1S(=O)(=O)NC(=O)Nc1nc(OCC(F)(F)F)nc(N(C)C)n1 [Triflusulfuron-Methyl]
- KOC ([1]; Tables 21-25): 40

SMILES: COc1nc(NC(C)C)nc(NC(C)C)n1 [Prometon]
- KOC ([1]; Tables 21-25): 150

SMILES: CCNc1nc(NC(C)(C)C)nc(SC)n1 [Terbutryn]
- KOC ([1]; Tables 21-25): 2000

SMILES: Cc1ccn2nc(S(=O)(=O)Nc3c(F)cccc3F)nc2n1 [Flumetsulam]
- KOC ([1]; Tables 21-25): 28

SMILES: Cc1cccc2sc3nncn3c12 [Tricyclazole]
- KOC ([1]; Tables 21-25): 169

SMILES: Nc1c(Cl)c(Cl)nc(C(=O)O)c1Cl [Picloram]
- KOC ([1]; Tables 21-25): 35

SMILES: COc1cc(OC)nc(NC(=O)NS(=O)(=O)c2ncccc2C(=O)N(C)C)n1 [Nicosulfuron]
- KOC ([1]; Tables 21-25): 21

SMILES: C[n+]1ccc(-c2cc[n+](C)cc2)cc1 [Paraquat]
- KOC [1, 3]: 1,000,000 mg/g

SMILES: CNC(=O)N(C)c1nnc(C(C)(C)C)s1 [Tebuthiuron]
- KOC [1, 3]: 80 mg/g

SMILES: CCOP(=S)(OCC)SCSC(C)(C)C [Terbufos]
- KOC [1, 3]: 500 mg/g

SMILES: CNC(=O)CSP(=S)(OC)OC [Dimethonate]
- KOC ([1]; Tables 21-25): 30

SMILES: CCOC(=O)c1ccccc1S(=O)(=O)NC(=O)Nc1nc(Cl)cc(OC)n1 [Chlorimuron-Ethyl]
- KOC ([1]; Tables 21-25): 106

SMILES: CCOP(=S)(OCC)Oc1ccc([N+](=O)[O-])cc1 [Parathion]
- KOC ([1]; Tables 21-25): 7660

SMILES: CCNc1nc(Cl)nc(NCC)n1 [Simazine]
- KOC ([1]; Tables 21-25): 130

SMILES: CC(C)Nc1nc(Cl)nc(NC(C)C)n1 [Propazine]
- KOC ([1]; Tables 21-25): 154

SMILES: COC(=O)c1ccccc1S(=O)(=O)NC(=O)N(C)c1nc(C)nc(OC)n1 [Tribenuron-Methyl]
- KOC ([1]; Tables 21-25): 31

SMILES: CCc1cnc(C2=NC(C)(C(C)C)C(=O)N2)c(C(=O)O)c1 (stereo not shown) [Imazethapyr]
- KOC ([1]; Tables 21-25): 52

SMILES: COP(=O)(OC)O/C(C)=C/C(=O)N(C)C [Dicrotophos]
- KOC ([1]; Tables 21-25): 75

SMILES: CN(C)C(=O)Nc1cccc(C(F)(F)F)c1 [Fluometuron]
- KOC ([1]; Tables 21-25): 67.4

SMILES: CC(C)c1ccc(NC(=O)N(C)C)cc1 [Isoproturon]
- KOC ([1]; Tables 21-25): 122

SMILES: CC(COc1ccc(Oc2ccccc2)cc1)Oc1ccccn1 (stereo not shown) [Pyriproxyfen]
- Koc ([1]; clay-loam soils): 58,000
- % released ([2]; filter paper/soil release system, washing 1 (first line)): 0%
- % released ([2]; filter paper/soil release system, washing 3): 0%
- % released ([2]; filter paper/soil release system, washing printed 1 (second line)): 0%
- mobility on filter paper or soil [2]: no mobility
- mobility on filter paper or soil ([2]; listed as PPF): did not move with any of the water washes

SMILES: COc1nc(C)nc(NC(=O)NS(=O)(=O)c2ccccc2Cl)n1 [Chlorsulfuron]
- KOC ([1]; Tables 21-25): 36.3

SMILES: CCOP(=S)(OCC)Oc1nc(Cl)n(C(C)C)n1 [Isazofos]
- KOC ([1]; Tables 21-25): 155

SMILES: CC(C)N.O=C(O)COc1ccc(Cl)cc1Cl [2,4-D Amine Salt (Control)]
- R Values ([2]; R line of the washing table, filter paper): 2
- % released ([2]; washing 1, sample applied to filter paper and dried): 94%
- % released ([2]; washing 2, sample applied to filter paper and dried): 6%
- % released ([2]; washing 4, sample applied to filter paper and dried): 0%
- % released ([2]; washing 5, sample applied to filter paper and dried): 0%
- % released ([2]; washing 6, sample applied to filter paper and dried): 0%
- % released ([2]; washing 7, sample applied to filter paper and dried): 0%
- % released ([2]; washing 8, sample applied to filter paper and dried): 0%
- % released ([2]; washing 9, sample applied to filter paper and dried): 0%
- % released ([2]; washing 10, * = not all of the sample was released after 10 washings): 0%
- % released ([2]; washing 33, sample applied to filter paper and dried): 0%

SMILES: CCOP(=S)(OCC)OC(Cl)C(Cl)(Cl)Cl (stereo not shown) [Chlorethoxyfos]
- KOC ([1]; Tables 21-25): 6100

SMILES: Cc1nn(-c2cc(NS(C)(=O)=O)c(Cl)cc2Cl)c(=O)n1C(F)F [Sulfentrazone]
- KOC ([1]; Tables 21-25): 43

SMILES: CN(C)C(=O)Nc1ccc(Cl)c(Cl)c1 [Diuron]
- KOC ([1]; Tables 21-25): 1067

SMILES: CCOP(=S)(OCC)SCSCC [Phorate]
- KOC ([1]; Tables 21-25): 1660

SMILES: COC(=O)c1ccccc1S(=O)(=O)NC(=O)Nc1nc(C)cc(C)n1 [Sulfometuron-Methyl]
- KOC ([1]; Tables 21-25): 85

SMILES: CCCOP(=S)(OCCC)SCC(=O)N1CCCCC1C (stereo not shown) [Piperophos]
- KOC ([1]; Tables 21-25): 5202

SMILES: CCNc1nc(Cl)nc(NC(C)(C)C#N)n1 [Cyanazine]
- KOC ([1]; Tables 21-25): 190

SMILES: COP(=S)(OC)Oc1cc(Cl)c(I)cc1Cl [Iodufenphos]
- KOC ([1]; Tables 21-25): 50000

SMILES: CCOP(=S)(OCC)Oc1cc(C)nc(C(C)C)n1 [Diazinon]
- KOC [1, 3]: 1000 mg/g

SMILES: CN(C)c1nc(=O)n(C2CCCCC2)c(=O)n1C [Hezazinone]
- KOC ([1]; Tables 21-25): 54

SMILES: O=C(O)c1c(Cl)ccc2cc(Cl)cnc12 [Quinclorac]
- KOC ([1]; Tables 21-25): 50

SMILES: CC(C)C1(C)N=C(c2nc3ccccc3cc2C(=O)O)NC1=O (stereo not shown) [Imazaquin]
- KOC ([1]; Tables 21-25): 18

SMILES: CC(C)(C)C(O)C(Oc1ccc(Cl)cc1)n1cncn1 (stereo not shown) [Triadimenol]
- KOC ([1]; Tables 21-25): 273

SMILES: CC(C)C1(C)N=C(c2ncccc2C(=O)O)NC1=O (stereo not shown) [Imazapyr]
- % released ([2]; filter paper, 10-ml water washing 1, listed as AI Control): 49%
- % released ([2]; filter paper, 10-ml water washing 1, listed as IMI Acid): 41%
- % released ([2]; filter paper, 10-ml water washing 1, listed as IMI acid alone): 28%
- % released ([2]; filter paper, 10-ml water washing 2, listed as AI Control): 47% and 49%
- % released ([2]; filter paper, 10-ml water washing 2, listed as IMI Acid): 39% and 37%
- % released ([2]; filter paper, 10-ml water washing 2, listed as IMI acid alone): 30%
- % released ([2]; filter paper, 10-ml water washing 3, listed as AI Control): 4% and 2%
- % released ([2]; filter paper, 10-ml water washing 3, listed as IMI Acid): 14%
- % released ([2]; filter paper, 10-ml water washing 3, listed as IMI acid alone): 25%
- % released ([2]; filter paper, 10-ml water washing 4, listed as AI Control): 0%
- % released ([2]; filter paper, 10-ml water washing 4, listed as IMI Acid): 6% and 5%
- % released ([2]; filter paper, 10-ml water washing 4, listed as IMI acid alone): 13%
- % released ([2]; filter paper, 10-ml water washing 5, listed as AI Control): 0%
- % released ([2]; filter paper, 10-ml water washing 5, listed as IMI Acid): 0%
- % released ([2]; filter paper, 10-ml water washing 5, listed as IMI acid alone): 4%
- % released ([2]; filter paper, 10-ml water washing 6): 0%
- % released ([2]; filter paper, 10-ml water washing 7): 0%
- % released ([2]; filter paper, 10-ml water washing 8): 0%
- % released ([2]; filter paper, 10-ml water washing 9): 0%
- % released ([2]; filter paper, 10-ml water washing 10, * = not all released after 10 washings): 0%
- R (rating factor, number of washings to deplete the AI) ([2]; filter paper, listed as AI Control): 3
- R (rating factor, number of washings to deplete the AI) ([2]; filter paper, listed as AI control): 3
- R (rating factor, number of washings to deplete the AI) ([2]; filter paper, listed as IMI Acid): 4
- R (rating factor, number of washings to deplete the AI) ([2]; filter paper, listed as IMI acid alone): 5

SMILES: CCOP(=S)(OCC)Oc1nc(Cl)c(Cl)cc1Cl [Chlorpyrifos]
- KOC [1, 3]: 6,000 mg/g

SMILES: O=C(O)Cc1cccc2ccccc12 [1-Napthylacetic Acid]
- KOC ([1]; Tables 21-25): 385

SMILES: COP(=S)(OC)SCn1nnc2ccccc2c1=O [Azinphosmethyl]
- KOC ([1]; Tables 21-25): 1000

SMILES: CCNc1nc(Cl)nc(NC(C)C)n1 [Atrazine]
- KOC ([1]; Tables 21-25): 100

SMILES: Clc1nc(Cl)nc(Nc2ccccc2Cl)n1 [Anilazine]
- KOC ([1]; Tables 21-25): 2000

SMILES: CCS(=O)(=O)c1cccnc1S(=O)(=O)NC(=O)Nc1nc(OC)cc(OC)n1 [Rimsulfuron]
- KOC ([1]; Tables 21-25): 47

SMILES: O=C(Nc1ccccc1)Nc1cnns1 [Thidiazuron]
- KOC ([1]; Tables 21-25): 742
